From patent US20120015953A1, “METHODS AND COMPOSITIONS FOR THE TREATMENT OF ALLERGY” (priority 2010, published 2012)

Tests used:
[1] = system: tissue eosinophil peroxidase (EPO); assay: late phase allergic response, conjunctival tissue eosinophil peroxidase (EPO) 24 h after challenge; assay type: in vivo, guinea pig; conditions: for inhibition of late phase allergic response: compound alone, EPO 24 hours after challenge (FIGS. 2, 5); for inhibition of late phase response with concomitant olopatadine: concomitant dosing with 0.2% olopatadine (FIGS. 2, 5)
Experimental: (§1) H1 and H4 antagonists were evaluated using an in vivo assay to determine the effect of the H4 antagonist on a co-administered H1 antagonist. Male Hartley VAF outbred guinea pigs were passively sensitized to ovalbumin by a single OD subconjunctival injection of undiluted guinea pig anti-ovalbumin antiserum 24 hours before OD topical challenge with 500 μg ovalbumin in saline. Control animals were injected with saline only and challenged with ovalbumin. To determine acute phase drug efficacy, 30 min after challenge animals were clinically scored by a masked observer for severity of signs of conjunctivitis based on a standard scale.
(§2) Test compounds were administered topically 1 hour prior to challenge. Twenty-four hours after challenge, animals were euthanized and conjunctivae were harvested for determination of tissue eosinophil peroxidase (EPO) concentration as a marker of allergic inflammation and late phase effects. Homogenates of freshly collected tissues were prepared by shaking the tissues in 2 mL round-bottom tubes containing 0.5 mL of homogenization buffer (50 mM Tris HCl, pH 8.0, 6 mM KBr) and one 5-mm stainless steel bead on a Qiagen TissueLyser at 30 Hz for 5 min. Homogenates were frozen and thawed once, then centrifuged at 10,000 rpm for 5 min. EPO activity in supernatants was measured by reacting diluted homogenates with a solution of 6 mM o-phenylenediamine substrate and 8.8 mM H2O2 in homogenization buffer for 3 min. The reaction was stopped with 4M H2SO4 and absorbances were measured at […] on a spectrophotometry plate reader. Total EPO in samples was calculated from a standard curve of recombinant human EPO in each assay. EPO activity was normalized to total protein concentration (Pierce BCA assay) in supernatants. Background EPO activity was determined from the unsensitized, antigen-challenged control group. Percent inhibition was calculated from the sensitized, antigen-challenged, vehicle-treated control group in each experiment. Ovalbumin-injected animals dosed topically with 0.1% w/v dexamethasone (dex) served as positive control. Groups were compared by ANOVA with Dunnett's or Tukey's post-hoc tests where appropriate with significance assigned at the 95% confidence level.

[2] = system: passively sensitized guinea pigs; assay: acute phase clinical score of conjunctivitis, passively sensitized guinea pigs challenged with ovalbumin; assay type: in vivo, guinea pig; conditions: for effect on olopatadine's inhibition of the acute clinical score: H4 antagonist topical once daily, 0.2% olopatadine 5 minutes later, antigen challenge 60 minutes after dose, scored 30 min after challenge (FIGS. 1, 4); for effect on olopatadine's acute phase effects under different dosing regimens: administered before, after, or in the same drop as 0.2% olopatadine (FIGS. 3, 6); for effect on acute phase clinical score on their own: compound alone, topical, 1 hour prior to challenge
Experimental: as §1, §2

Clc1ccc2nc(N3CCNCC3)c3nnnn3c2c1 [Compound 2, 8-chloro-4-(piperazin-1-yl)tetrazolo[1,5-a]quinoxaline]
inhibition of late phase allergic response [1]: very good inhibitors of late phase allergic response | inhibition of late phase response with concomitant olopatadine [1]: slight increase in the inhibition of late phase response | effect on olopatadine's inhibition of the acute clinical score [2]: does not show suppression of olopatadine's acute phase effects | effect on olopatadine's acute phase effects under different dosing regimens [2]: These effects on acute phase response are not seen | effect on acute phase clinical score on their own [2]: Neither Compound 1 nor Compound 2 demonstrate any effect on acute phase clinical score on their own

CN1CCN(c2nc3ccc(C(F)(F)F)cc3n3cnnc23)CC1 [Compound 1, 4-(4-methylpiperazin-1-yl)-8-(trifluoromethyl)-[1,2,4]triazolo[4,3-a]quinoxaline]
inhibition of late phase allergic response [1]: very good inhibitors of late phase allergic response | inhibition of late phase response with concomitant olopatadine [1]: slight increase in the inhibition of late phase response | effect on olopatadine's inhibition of the acute clinical score [2]: dose dependent effect on the inhibition of the acute clinical score relative to olopatadine alone | effect on olopatadine's acute phase effects under different dosing regimens [2]: reduction of olopatadine's acute phase effects and dose dependency | effect on acute phase clinical score on their own [2]: Neither Compound 1 nor Compound 2 demonstrate any effect on acute phase clinical score on their own
